Experimental data from US20240074997A1 (priority 2022, published 2024).
≈ marks a conversion by molar mass, not a printed value.

Legend:
[1] = target: T1, glucocorticoid receptor (Homo sapiens, UniProt P04150); details: cited from earlier work
T1 sequence (P04150 1-777): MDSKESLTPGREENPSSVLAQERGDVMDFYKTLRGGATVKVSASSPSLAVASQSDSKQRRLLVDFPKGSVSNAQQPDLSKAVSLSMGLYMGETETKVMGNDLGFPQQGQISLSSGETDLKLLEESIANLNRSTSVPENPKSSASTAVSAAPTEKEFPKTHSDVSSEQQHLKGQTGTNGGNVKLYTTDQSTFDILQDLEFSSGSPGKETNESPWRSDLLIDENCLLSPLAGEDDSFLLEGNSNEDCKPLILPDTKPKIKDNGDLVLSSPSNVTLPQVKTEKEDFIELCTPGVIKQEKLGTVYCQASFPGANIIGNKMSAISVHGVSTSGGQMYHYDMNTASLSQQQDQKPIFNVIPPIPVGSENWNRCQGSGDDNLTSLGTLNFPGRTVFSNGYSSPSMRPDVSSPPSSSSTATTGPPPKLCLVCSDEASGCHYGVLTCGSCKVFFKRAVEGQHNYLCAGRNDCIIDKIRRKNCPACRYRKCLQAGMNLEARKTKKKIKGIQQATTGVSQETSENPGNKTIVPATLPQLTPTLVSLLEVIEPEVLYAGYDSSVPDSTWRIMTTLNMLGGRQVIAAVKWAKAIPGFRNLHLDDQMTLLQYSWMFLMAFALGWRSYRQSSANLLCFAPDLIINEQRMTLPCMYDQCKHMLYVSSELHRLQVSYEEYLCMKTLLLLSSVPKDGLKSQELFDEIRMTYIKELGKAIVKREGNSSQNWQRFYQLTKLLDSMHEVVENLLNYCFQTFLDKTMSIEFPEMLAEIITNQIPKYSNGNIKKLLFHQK

[2] = cited from earlier work
[3] = target: T2, glucocorticoid receptor recombinant human protein, ligand binding domain (Homo sapiens, UniProt P04150); assay: glucocorticoid receptor LBD coregulator-derived peptide array; format: biochemical; details: Example 2, 0.1 mM vs solvent 2% DMSO, FIG. 6
T2 construct: purchased Thermo Fisher Scientific A15668
T2 sequence (P04150 524-758 limits assumed): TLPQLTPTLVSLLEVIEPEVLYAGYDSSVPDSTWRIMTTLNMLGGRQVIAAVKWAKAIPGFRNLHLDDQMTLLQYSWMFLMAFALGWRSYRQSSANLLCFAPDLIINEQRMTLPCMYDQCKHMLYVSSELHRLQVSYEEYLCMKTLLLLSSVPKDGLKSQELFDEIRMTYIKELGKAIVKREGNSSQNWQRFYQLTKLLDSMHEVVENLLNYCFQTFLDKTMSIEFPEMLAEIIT
Method: EXAMPLE 1: Interactions between the glucocorticoid receptor ligand binding domain (LBD) and coregulator-derived peptides were determined using the method as described by Zalachoras et al 2009^xl. Each peptide array consisting of 11 coregulator peptides as described in Table 1 were incubated with a reaction mixture of 1 nM purified glucocorticoid receptor recombinant human protein, ligand binding domain, (Thermo Fisher Scientific, cat #A15668), ALEXA488-conjugated anti-Glutathione S-Transferase (GST) antibody and buffer F (PV4689, A-11131, and PV4547; Invitrogen). […] Incubation was performed at 20° C. on the peptide array, using one two arrays per condition. glucocorticoid receptor binding to each peptide on the array, reflected by fluorescent signal, was quantified by image analysis using R-based software (Precision Medicine Lab). […] Glucocorticoid receptor binding to each peptide on the array, reflected by fluorescent signal, was quantified by image analysis using R-based software (Precision Medicine Lab). […]
The use of glucocorticoid receptor LBD was as described in Experiment 1. […] Glucocorticoid receptor binding to each peptide on the array, reflected by fluorescent signal, was quantified by image analysis using R-based software (Precision Medicine Lab).

[4] = cited from earlier work; remark: listed apart in the source
[5] = target: T3, RARβ (Homo sapiens, UniProt P10826); details: cited from earlier work
T3 sequence (P10826 1-455): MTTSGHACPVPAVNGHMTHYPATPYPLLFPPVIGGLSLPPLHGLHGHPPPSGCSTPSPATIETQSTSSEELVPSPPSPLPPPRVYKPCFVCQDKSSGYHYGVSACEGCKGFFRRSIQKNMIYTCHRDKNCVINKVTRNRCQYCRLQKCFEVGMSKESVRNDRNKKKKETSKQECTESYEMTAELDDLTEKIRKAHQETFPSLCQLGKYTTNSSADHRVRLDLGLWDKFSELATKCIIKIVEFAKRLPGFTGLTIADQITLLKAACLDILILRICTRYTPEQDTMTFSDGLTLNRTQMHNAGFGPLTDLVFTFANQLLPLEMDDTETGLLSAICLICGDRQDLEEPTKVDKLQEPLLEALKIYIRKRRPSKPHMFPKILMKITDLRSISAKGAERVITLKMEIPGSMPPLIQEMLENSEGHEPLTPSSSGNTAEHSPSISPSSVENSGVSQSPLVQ

[6] = cited from earlier work; remark: listed apart in the source
[7] = system: RM-1 cells; details: cited from earlier work
[8] = target: T4, RARγ (Homo sapiens, UniProt P13631); details: cited from earlier work
T4 sequence (P13631 1-454): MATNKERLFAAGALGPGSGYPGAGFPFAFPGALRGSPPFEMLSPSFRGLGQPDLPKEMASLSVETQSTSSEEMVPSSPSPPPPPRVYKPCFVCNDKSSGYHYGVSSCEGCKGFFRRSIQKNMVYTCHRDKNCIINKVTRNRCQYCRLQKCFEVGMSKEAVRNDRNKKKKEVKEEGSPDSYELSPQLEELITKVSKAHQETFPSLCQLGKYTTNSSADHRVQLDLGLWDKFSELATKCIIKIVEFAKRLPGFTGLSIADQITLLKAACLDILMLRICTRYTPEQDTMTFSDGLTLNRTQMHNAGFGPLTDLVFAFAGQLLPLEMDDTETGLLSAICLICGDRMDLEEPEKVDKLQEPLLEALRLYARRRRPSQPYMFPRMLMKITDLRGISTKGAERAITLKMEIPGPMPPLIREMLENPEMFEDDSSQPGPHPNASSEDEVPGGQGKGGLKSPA

[9] = cited from earlier work; remark: listed apart in the source
[10] = system: zebrafish larvae; assay: Zebrafish inflammation model (tail fin clip, neutrophil migration); format: in vivo; details: 4 hours, clipped 3 day old larvae, p<0.001 vs. Vehicle
Text: The details of this model have been described previously (Xie, Y., Meijer, […]. Modeling Inflammation in Zebrafish for the Development of Anti-inflammatory Drugs. Front. Cell Dev. Biol. 8, 620984 (2021)). In short, a zebrafish model with fluorescently labeled neutrophils is used. The tip of the tail fin of 3 day old zebrafish larvae are clipped. As a result, a local inflammatory response is initiated and evokes to leukocyte migration towards the wound. The number of attracted neutrophils is recorded and serves as parameters for inflammation. […] (Significance ***: p<0.001, as determined by Student's t-Test vs. Vehicle)

C[C@H](NC(=O)[C@H]1CCCO1)[C@H](Oc1ccc(C(=O)O[C@H]2CCCN(C(=O)[C@H]3COC(=O)C3)C2)cc1)c1ccc(C2CC2)cc1 [LEO 134310]
potency on transactivation [1]: lower potency | potency on transrepression [1]: high potency

C[C@@H]1C[C@H]2[C@@H]3C[C@H](F)C4=CC(=O)C=C[C@]4(C)[C@@]3(F)[C@@H](O)C[C@]2(C)[C@@]1(OC(=O)C1C(C)(C)C1(C)C)C(=O)OCC#N [GW870086]
clinical efficacy in atopic dermatitis ([2]; atopic dermatitis patients): did not achieve significant clinical efficacy | skin atrophy ([2]; healthy adults): does not include skin atrophy

CC1=C(/C=C/C(C)=C/C=C/C(C)=C/C(=O)O)C(C)(C)CCC1 [ATRA, all-trans retinoic acid]
glucocorticoid receptor-modulating effect (binding profile) [3]: does not display any glucocorticoid receptor-modulating effect

COc1ccc(-c2ccc3cc(C(=O)O)ccc3c2)cc1C12CC3CC(CC(C3)C1)C2 [Adapalene, 6-[3-(1-adamantyl)-4-methoxyphenyl]naphthalene-2-carboxylic acid]
solubility in dimethyl sulfoxide ([4]; 25° C.): > 10000 µg/mL | solubility in dimethylformamide ([4]; 25° C.): 5000 µg/mL (≈ 12.1 mM) | solubility in ethanol ([4]; 25° C.): < 1000 µg/mL | solubility in tetrahydrofuran ([4]; 25° C.): 5000 µg/mL (≈ 12.1 mM) | solubility in water [4]: poor solubility | affinity for RARβ [5]: high affinity | degradation in acidic condition ([6]; 0.3 M HCl solution, 10 min of boiling): 28% | stability in alkaline condition ([6]; 2 M NaOH solution, boiled for 2 h): stable | degradation in oxidative conditions ([6]; 80° C. for 10 min with 30% hydrogen peroxide solution): 30% | degradation on exposure to UV light ([6]; 254 and 366 nm, 12 h): 25% | migration ability of RM-1 cells (wound-healing assay) ([7]; dose-dependent): significantly suppressed | invasiveness of RM-1 cells ([7]; high doses): decrease the invasiveness | affinity for RARγ [8]: high affinity | pKa [9]: 4.23 | pKa (strongest acidic) [9]: 3.99 | pKa (strongest basic) [9]: −4.8 | anti-inflammatory action (number of attracted neutrophils) ([10]; 1 μM): significant anti-inflammatory action

C[C@H]1C[C@H]2[C@@H]3CCC4=CC(=O)C=C[C@]4(C)[C@@]3(Cl)[C@@H](O)C[C@]2(C)[C@@]1(O)C(=O)CO [beclomethasone]
anti-inflammatory action (number of attracted neutrophils) ([10]; 25 μM): significant anti-inflammatory action
